Measured values taken from ChEMBL document CHEMBL5390265, “Design, Synthesis, and Pharmacological Evaluation of Multisubstituted Pyrido[4,3-d]pyrimidine Analogues Bearing Deuterated Methylene Linkers as Potent KRASG12D Inhibitors” (J Med Chem, 2023).

Key:
AGS [1] = assay: Induction of apoptosis in human AGS cells harboring […] assessed as early apoptotic cells at 50 uM incubated for 24 hrs by annexin V and propidium iodide staining based flow cytometry analysis (reference value: 4.05%); format: functional
[2] = Toxicity in mouse xenografted with human ASPC1 cells assessed as change in body weight at 10 mg/kg,ip administrated twice daily for 20 consecutive days; format: organism-based; settings: in vivo
[3] = Toxicity in mouse xenografted with human ASPC1 cells assessed as change in kidney morphology at 10 mg/kg,ip administrated twice daily for 20 consecutive days by Hematoxylin-eosin staining based microscopic analysis; format: organism-based; settings: in vivo
[4] = Toxicity in mouse xenografted with human ASPC1 cells assessed as serum creatinine level at 20 mg/kg,ip administrated twice daily for 20 consecutive days (reference value: 28.2 +/- 2.1 umol/L); format: organism-based; settings: in vivo
ASPC1 [5] = assay: Induction of apoptosis in human ASPC1 cells harboring […] assessed as early apoptotic cells at 50 uM incubated for 24 hrs by annexin V and propidium iodide staining based flow cytometry analysis (reference value: 5.22%); format: functional
[6] = Metabolic stability in monkey liver microsomes assessed as intrinsic clearance at 150 uM measured after 60 mins in presence of NADPH by LC-MS/MS analysis; format: ADME, Macaca mulatta, Microsome; settings: rhesus monkey, read-out: CLH
GTPase KRas = GTPase KRas (Homo sapiens, UniProt P01116); assay: Inhibition of recombinant human GTP-bound KRAS wild type (1 to 169 residues) incubated for 1 hr by HTRF assay
[7] = Half life in Sprague-Dawley rat at 1 mg/kg,iv measured upto 24 hrs by LC-MS/MS analysis; format: ADME, organism-based; settings: in vivo
[8] = Metabolic stability in monkey liver microsomes assessed as half life at 150 uM measured after 60 mins in presence of NADPH by LC-MS/MS analysis; format: ADME, Macaca mulatta, Microsome; settings: rhesus monkey
[9] = AUC in Sprague-Dawley rat at 1 mg/kg,iv measured upto 24 hrs by LC-MS/MS analysis; format: ADME, organism-based; set-up: dose 1 mg/kg, time < 24 hrs, route iv; settings: in vivo
[10] = Metabolic stability in rat liver microsomes assessed as intrinsic clearance at 150 uM measured after 60 mins in presence of NADPH by LC-MS/MS analysis; format: ADME, Microsome; settings: read-out: CLH
[11] = Toxicity in mouse xenografted with human ASPC1 cells assessed as change in body weight at 20 mg/kg,ip administrated twice daily for 20 consecutive days; format: organism-based; settings: in vivo
ASPC1 [12] = assay: Antiproliferative activity against human ASPC1 cells harboring […] assessed as inhibition of cell growth incubated for 5 days by crystal violet staining analysis; format: functional, cell-based; settings: Homo sapiens, ASPC1, 120 h
[13] = Toxicity in mouse xenografted with human ASPC1 cells assessed as change in heart morphology at 10 mg/kg,ip administrated twice daily for 20 consecutive days by Hematoxylin-eosin staining based microscopic analysis; format: organism-based; settings: in vivo
[14] = Toxicity in mouse xenografted with human ASPC1 cells assessed as change in lung morphology at 20 mg/kg,ip administrated twice daily for 20 consecutive days by Hematoxylin-eosin staining based microscopic analysis; format: organism-based; settings: in vivo
[15] = Toxicity in mouse xenografted with human ASPC1 cells assessed as change in heart morphology at 20 mg/kg,ip administrated twice daily for 20 consecutive days by Hematoxylin-eosin staining based microscopic analysis; format: organism-based; settings: in vivo
[16] = Inhibition of recombinant human His6-tagged KRAS4B G12D mutant incubated for 1 hr by HTRF assay
ASPC1 [17] = assay: Antitumor activity against human ASPC1 cells xenografted in mouse assessed as inhibition of tumor growth at 20 mg/kg,ip administrated twice daily for 20 consecutive days relative to control; format: functional; settings: read-out: TGI
[18] = Toxicity in mouse xenografted with human ASPC1 cells assessed as serum blood urea nitrogen level at 10 mg/kg,ip administrated twice daily for 20 consecutive days (reference value: 16.3 +/- 1.6 mmol/L); format: organism-based; settings: in vivo
ASPC1 [19] = assay: Induction of apoptosis in human ASPC1 cells harboring […] assessed as early apoptotic cells at 25 uM incubated for 24 hrs by annexin V and propidium iodide staining based flow cytometry analysis (reference value: 5.22%); format: functional
[20] = Toxicity in mouse xenografted with human ASPC1 cells assessed as change in liver morphology at 20 mg/kg,ip administrated twice daily for 20 consecutive days by Hematoxylin-eosin staining based microscopic analysis; format: organism-based; settings: in vivo
[21] = Metabolic stability in rat liver microsomes assessed as half life at 150 uM measured after 60 mins in presence of NADPH by LC-MS/MS analysis; format: ADME, Microsome
[22] = Toxicity in mouse xenografted with human ASPC1 cells assessed as change in lung morphology at 10 mg/kg,ip administrated twice daily for 20 consecutive days by Hematoxylin-eosin staining based microscopic analysis; format: organism-based; settings: in vivo
[23] = Toxicity in mouse xenografted with human ASPC1 cells assessed as change in spleen morphology at 10 mg/kg,ip administrated twice daily for 20 consecutive days by Hematoxylin-eosin staining based microscopic analysis; format: organism-based; settings: in vivo
AGS [24] = assay: Induction of apoptosis in human AGS cells harboring […] assessed as late apoptotic cells at 25 uM incubated for 24 hrs by annexin V and propidium iodide staining based flow cytometry analysis (reference value: 7.74%); format: functional
[25] = Toxicity in mouse xenografted with human ASPC1 cells assessed as change in liver morphology at 10 mg/kg,ip administrated twice daily for 20 consecutive days by Hematoxylin-eosin staining based microscopic analysis; format: organism-based; settings: in vivo
ASPC1 [26] = assay: Induction of apoptosis in human ASPC1 cells harboring […] assessed as late apoptotic cells at 25 uM incubated for 24 hrs by annexin V and propidium iodide staining based flow cytometry analysis (reference value: 6.96%); format: functional
[27] = Metabolic stability in dog liver microsomes assessed as half life at 150 uM measured after 60 mins in presence of NADPH by LC-MS/MS analysis; format: ADME, Canis lupus familiaris, Microsome
[28] = Toxicity in mouse xenografted with human ASPC1 cells assessed as serum ratio of AST/ALT at 10 mg/kg,ip administrated twice daily for 20 consecutive days (reference value: 6.5 +/- 1.7); format: organism-based; settings: in vivo
ASPC1 [29] = assay: Induction of apoptosis in human ASPC1 cells harboring […] assessed as late apoptotic cells at 50 uM incubated for 24 hrs by annexin V and propidium iodide staining based flow cytometry analysis (reference value: 6.96%); format: functional
AGS [30] = assay: Induction of apoptosis in human AGS cells harboring […] assessed as late apoptotic cells at 50 uM incubated for 24 hrs by annexin V and propidium iodide staining based flow cytometry analysis (reference value: 7.74%); format: functional
[31] = Toxicity in mouse xenografted with human ASPC1 cells assessed as serum creatinine level at 10 mg/kg,ip administrated twice daily for 20 consecutive days (reference value: 28.2 +/- 2.1 umol/L); format: organism-based; settings: in vivo
A549 = assay: Antiproliferative activity against human A549 cells harboring […] assessed as inhibition of cell growth incubated for 5 days by crystal violet staining analysis; format: functional, cell-based; settings: Homo sapiens, A549, 120 h
AGS [32] = assay: Antiproliferative activity against human AGS cells harboring […] assessed as inhibition of cell growth incubated for 5 days by crystal violet staining analysis; format: functional, cell-based; settings: Homo sapiens, AGS, 120 h
NCI-H1299 = assay: Antiproliferative activity against human NCI-H1299 cells harboring KRAS wild type assessed as inhibition of cell growth incubated for 5 days by crystal violet staining analysis; format: functional, cell-based; settings: NCI-H1299, 120 h
[33] = Toxicity in mouse xenografted with human ASPC1 cells assessed as serum ratio of AST/ALT at 20 mg/kg,ip administrated twice daily for 20 consecutive days (reference value: 6.5 +/- 1.7); format: organism-based; settings: in vivo
[34] = Clearance in Sprague-Dawley rat at 1 mg/kg,iv measured upto 24 hrs by LC-MS/MS analysis; format: ADME, organism-based; settings: in vivo
ASPC1 [35] = assay: Antitumor activity against human ASPC1 cells xenografted in mouse assessed as inhibition of tumor growth at 10 mg/kg,ip administrated twice daily for 20 consecutive days relative to control; format: functional; settings: read-out: TGI
[36] = Metabolic stability in dog liver microsomes assessed as intrinsic clearance at 150 uM measured after 60 mins in presence of NADPH by LC-MS/MS analysis; format: ADME, Canis lupus familiaris, Microsome; settings: read-out: CLH
[37] = Toxicity in mouse xenografted with human ASPC1 cells assessed as change in kidney morphology at 20 mg/kg,ip administrated twice daily for 20 consecutive days by Hematoxylin-eosin staining based microscopic analysis; format: organism-based; settings: in vivo
AGS [38] = assay: Induction of apoptosis in human AGS cells harboring […] assessed as early apoptotic cells at 25 uM incubated for 24 hrs by annexin V and propidium iodide staining based flow cytometry analysis (reference value: 4.05%); format: functional
[39] = Toxicity in mouse xenografted with human ASPC1 cells assessed as serum blood urea nitrogen level at 20 mg/kg,ip administrated twice daily for 20 consecutive days (reference value: 16.3 +/- 1.6 mmol/L); format: organism-based; settings: in vivo
[40] = Toxicity in mouse xenografted with human ASPC1 cells assessed as change in spleen morphology at 20 mg/kg,ip administrated twice daily for 20 consecutive days by Hematoxylin-eosin staining based microscopic analysis; format: organism-based; settings: in vivo
[41] = Half life in Sprague-Dawley rat at 3 mg/kg,po measured upto 24 hrs by LC-MS/MS analysis; format: ADME, organism-based; settings: in vivo
[42] = AUC in Sprague-Dawley rat at 3 mg/kg,po measured upto 24 hrs by LC-MS/MS analysis; format: ADME, organism-based; set-up: time < 24 hrs, dose 3 mg/kg, route po; settings: in vivo

SMILES: [2H]C([2H])(Oc1nc(N2C[C@H]3CC[C@@H](C2)N3)c2cnc(-c3cc(O)cc4ccc(F)c(C#C)c34)c(F)c2n1)C12CCCN1CC(=C(F)F)C2 (stereo partly drawn)
- Activity (AGS [1]): 13.1%
- Activity [2]: Non-Toxic
- Activity [3]: Non-Toxic
- Activity [4]: 22.2 µmol/L
- Activity (ASPC1 [5]): 11.5%
- microsomal CLint at 150 µM [6]: 57 µL/min/mg
- IC50 (GTPase KRas): 10.2 nM
- half-life [7]: 18.4 min
- half-life at 150 µM [8]: 24.3 min
- AUC at 24 h [9]: 37.2 ng·h/mL
- microsomal CLint at 150 µM [10]: 16.6 µL/min/mg
- Activity [11]: Non-Toxic
- IC50 (ASPC1 [12]): 0.6 nM
- Activity [13]: Non-Toxic
- Activity [14]: Non-Toxic
- Activity [15]: Non-Toxic
- IC50 [16]: 0.48 nM
- inhibition in vivo at 20 mg/kg (ASPC1 [17]): 73.4%
- Activity [18]: 13.5 mmol/L
- Activity (ASPC1 [19]): 9.17%
- Activity [20]: Non-Toxic
- half-life at 150 µM [21]: 83.5 min
- Activity [22]: Non-Toxic
- Activity [23]: Non-Toxic
- Activity (AGS [24]): 9.76%
- Activity [25]: Non-Toxic
- Activity (ASPC1 [26]): 10%
- half-life at 150 µM [27]: 26.8 min
- Ratio [28]: 5
- Activity (ASPC1 [29]): 18.7%
- Activity (AGS [30]): 14%
- Activity [31]: 25.9 µmol/L
- IC50 (A549): 332 nM
- IC50 (AGS [32]): 0.3 nM
- IC50 (NCI-H1299): 1940 nM
- Ratio [33]: 5.7
- clearance [34]: 490 mL/min/kg
- inhibition in vivo at 10 mg/kg (ASPC1 [35]): 55.3%
- microsomal CLint at 150 µM [36]: 51.8 µL/min/mg
- Activity [37]: Non-Toxic
- Activity (AGS [38]): 11.4%
- Activity [39]: 14.1 mmol/L
- Activity [40]: Non-Toxic

SMILES: [2H]C([2H])(Oc1nc(N2C[C@H]3CC[C@@H](C2)N3)c2cnc(-c3cc(N)cc4ccc(F)c(C#C)c34)c(F)c2n1)C12CCCN1CC(=C(F)F)C2 (stereo partly drawn)
- Activity (AGS [1]): 9.08%
- Activity [2]: Non-Toxic
- Activity [3]: Non-Toxic
- Activity [4]: 23.5 µmol/L
- half-life [41]: 22.9 min
- Activity (ASPC1 [5]): 12.4%
- microsomal CLint at 150 µM [6]: 45.4 µL/min/mg
- IC50 (GTPase KRas): 16.7 nM
- half-life [7]: 660 min
- half-life at 150 µM [8]: 30.5 min
- AUC at 24 h [9]: 102 ng·h/mL
- microsomal CLint at 150 µM [10]: 15 µL/min/mg
- Activity [11]: Non-Toxic
- IC50 (ASPC1 [12]): 1.6 nM
- Activity [13]: Non-Toxic
- Activity [14]: Non-Toxic
- Activity [15]: Non-Toxic
- IC50 [16]: 1.19 nM
- inhibition in vivo at 20 mg/kg (ASPC1 [17]): 71.3%
- AUC at 24 h [42]: 2.89 ng·h/mL
- Activity [18]: 19.2 mmol/L
- Activity (ASPC1 [19]): 9.56%
- Activity [20]: Non-Toxic
- half-life at 150 µM [21]: 92.4 min
- Activity [22]: Non-Toxic
- Activity [23]: Non-Toxic
- Activity (AGS [24]): 11%
- Activity [25]: Non-Toxic
- Activity (ASPC1 [26]): 10.8%
- half-life at 150 µM [27]: 85.6 min
- Ratio [28]: 4.5
- Activity (ASPC1 [29]): 11.8%
- Activity (AGS [30]): 13.7%
- Activity [31]: 29.7 µmol/L
- IC50 (A549): 1190 nM
- IC50 (AGS [32]): 0.9 nM
- IC50 (NCI-H1299): 1850 nM
- Ratio [33]: 4.5
- clearance [34]: 168 mL/min/kg
- inhibition in vivo at 10 mg/kg (ASPC1 [35]): 53.3%
- microsomal CLint at 150 µM [36]: 16.2 µL/min/mg
- Activity [37]: Non-Toxic
- Activity (AGS [38]): 8.84%
- Activity [39]: 16.7 mmol/L
- Activity [40]: Non-Toxic
